From paper PMC4677984, “Activation of Muscarinic M1 Acetylcholine Receptors Induces Long-Term Potentiation in the Hippocampus” (Cerebral Cortex (New York, NY), 2015)

Tests used:
human M2 receptors [1] = target: T1, human M2 receptors (Homo sapiens, UniProt P08172); conditions: over the concentration range tested
Procedure: (§1) CHO cells stably expressing recombinant human M1, M3, and M5 Rs and AV12 cells stably expressing Gα15 and recombinant human M2 or M4 Rs were cultured in DMEM with high glucose and pyridoxine hydrochloride supplemented with 5–10% heat-inactivated fetal bovine serum, 10–20 mM HEPES, 1 mM L-glutamine, 1% penicillin/streptomycin solution and selection agents, 0.5 mg/mL geneticin, or 0.3 µg/mL puromycin. Confluent cultures were passaged weekly and cells harvested 24 h prior to assay using 0.25% trypsin–EDTA and plated at a density of 40 000–50 000 cells per well in tissue culture treated, poly-D-lysine-coated 96-well black-walled, clear bottom plates (Corning or Becton-Dickinson). For FLIPR (FLIPR-tetra, Molecular Devices) assays, media was removed and cells were incubated with 5 µM Fluo-4-AM/0.05% pluronic F-127 (Invitrogen) in a HEPES-buffered salt solution (HEPES-HBSS; composition, in mM; 135 NaCl, 5 KCl, 1.3 CaCl2, 0.5 MgCl2, 0.4 MgSO4, 0.4 KH2PO4, 4.2 NaHCO3, 0.3 Na2HPO4, 5.6 glucose, 20 HEPES, +2.5 mM probenecid for CHO cell lines, pH 7.5 adjusted with 5 M NaOH) for 1 h at room temperature, in the dark, before the media was removed and replaced with HEPES-buffered salt solution in the absence of Fluo-4. Probenecid was included to optimize dye loading in CHO cell lines. Although probenecid has been reported to interact and activate some TRP channels {McClenaghan, 2012 #2996}, there are no reports of interactions with mAChRs or nontransfected CHO cells. Plates were then transferred to FLIPR for experiments, which were also conducted at room temperature.
(§2) For data analysis, relative EC50 and IC50 values were calculated using a 4-parameter logistic curve (GraphPad Prism v6).

human M3 receptors = human M3 receptors (Homo sapiens, UniProt P20309); conditions: over the concentration range tested
Sequence of human M3 receptors (P20309 whole entry): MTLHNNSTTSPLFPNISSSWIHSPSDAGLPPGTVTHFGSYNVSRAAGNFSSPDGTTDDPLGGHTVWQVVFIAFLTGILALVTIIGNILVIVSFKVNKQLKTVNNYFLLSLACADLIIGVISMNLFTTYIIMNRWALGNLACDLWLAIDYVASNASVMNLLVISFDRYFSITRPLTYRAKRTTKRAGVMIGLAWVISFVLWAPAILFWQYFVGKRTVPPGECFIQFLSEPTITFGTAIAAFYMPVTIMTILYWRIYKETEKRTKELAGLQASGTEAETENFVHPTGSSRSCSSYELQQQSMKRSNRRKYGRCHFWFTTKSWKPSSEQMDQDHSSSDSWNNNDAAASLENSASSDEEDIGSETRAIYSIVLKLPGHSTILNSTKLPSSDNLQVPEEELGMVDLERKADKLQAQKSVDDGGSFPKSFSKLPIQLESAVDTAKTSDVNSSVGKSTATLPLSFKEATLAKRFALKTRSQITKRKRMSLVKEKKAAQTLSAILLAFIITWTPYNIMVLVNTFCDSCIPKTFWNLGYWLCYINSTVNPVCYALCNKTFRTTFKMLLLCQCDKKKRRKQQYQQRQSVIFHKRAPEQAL
Procedure: as §1, §2

human M4 receptors [2] = target: T2, human M4 receptors (Homo sapiens, UniProt P08173); conditions: over the concentration range tested
T2 sequence (P08173 whole entry): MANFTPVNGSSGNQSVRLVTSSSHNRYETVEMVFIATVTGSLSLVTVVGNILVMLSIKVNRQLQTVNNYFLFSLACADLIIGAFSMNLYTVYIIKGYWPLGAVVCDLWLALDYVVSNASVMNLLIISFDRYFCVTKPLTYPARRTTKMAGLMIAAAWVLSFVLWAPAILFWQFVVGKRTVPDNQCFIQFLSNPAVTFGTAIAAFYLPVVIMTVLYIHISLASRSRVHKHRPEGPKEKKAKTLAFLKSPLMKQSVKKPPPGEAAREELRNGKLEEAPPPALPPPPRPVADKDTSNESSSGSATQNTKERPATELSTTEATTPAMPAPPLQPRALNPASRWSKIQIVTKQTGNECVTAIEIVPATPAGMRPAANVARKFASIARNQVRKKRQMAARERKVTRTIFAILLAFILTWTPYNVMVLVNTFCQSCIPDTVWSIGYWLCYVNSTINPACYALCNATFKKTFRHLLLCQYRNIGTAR
Procedure: as §1, §2

human M5 receptors [3] = target: T3, human M5 receptors (Homo sapiens, UniProt P08912); conditions: over the concentration range tested
T3 sequence (P08912 whole entry): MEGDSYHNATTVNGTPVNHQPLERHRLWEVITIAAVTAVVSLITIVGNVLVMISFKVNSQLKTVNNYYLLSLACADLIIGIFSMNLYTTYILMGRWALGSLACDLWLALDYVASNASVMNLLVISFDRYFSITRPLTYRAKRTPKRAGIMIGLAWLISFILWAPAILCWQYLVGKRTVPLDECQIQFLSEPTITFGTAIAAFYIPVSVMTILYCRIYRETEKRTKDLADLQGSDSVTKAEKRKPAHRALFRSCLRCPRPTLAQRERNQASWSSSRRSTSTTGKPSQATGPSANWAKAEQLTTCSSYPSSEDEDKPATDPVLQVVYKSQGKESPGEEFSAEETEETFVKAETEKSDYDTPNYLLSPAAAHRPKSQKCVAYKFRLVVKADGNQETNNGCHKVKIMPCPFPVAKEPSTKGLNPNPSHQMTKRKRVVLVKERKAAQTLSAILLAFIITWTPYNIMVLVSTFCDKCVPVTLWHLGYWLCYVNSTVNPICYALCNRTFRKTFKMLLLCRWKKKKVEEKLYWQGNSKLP
Procedure: as §1, §2

human M2 receptors [4] = target: T1, human M2 receptors; test: cell-based
Procedure: as §1, §2

human M4 receptors [5] = target: T2, human M4 receptors; test: cell-based
Procedure: as §1, §2

human M5 receptors [6] = target: T3, human M5 receptors; test: cell-based
Procedure: as §1, §2

mouse native M1Rs = mouse native M1Rs (Mus musculus, UniProt P12657); test: biochemical
Sequence of mouse native M1Rs (P12657 whole entry): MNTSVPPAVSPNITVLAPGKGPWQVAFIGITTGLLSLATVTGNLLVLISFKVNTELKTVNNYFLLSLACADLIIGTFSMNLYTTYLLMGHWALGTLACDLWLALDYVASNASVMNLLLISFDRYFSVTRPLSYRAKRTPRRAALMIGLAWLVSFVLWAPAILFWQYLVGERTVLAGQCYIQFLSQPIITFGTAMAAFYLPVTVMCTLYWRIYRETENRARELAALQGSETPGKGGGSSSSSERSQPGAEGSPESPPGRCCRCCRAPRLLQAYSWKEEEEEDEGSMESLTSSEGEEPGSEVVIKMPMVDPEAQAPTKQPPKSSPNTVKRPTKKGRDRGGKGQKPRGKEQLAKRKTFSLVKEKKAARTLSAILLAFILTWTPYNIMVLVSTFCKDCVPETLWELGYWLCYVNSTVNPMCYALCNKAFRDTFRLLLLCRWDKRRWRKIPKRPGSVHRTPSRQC
Procedure: (§3) All procedures were performed at 4°C. […] Homogenate was centrifuged at 1000×g for 10 min and supernatant collected, the pellet was rehomogenized and centrifuged again, as above, and supernatant pooled and centrifuged at 11 000×g for 20 min. The resulting pellet was suspended in a final storage buffer (10 mM HEPES, 1 mM EGTA, 1 mM MgCl2, 1 mM DTT; pH 7.4) and centrifuged at 27 000×g for 20 min. Supernatant was removed and the final pellet suspended in 2 mL of final storage buffer. Protein concentration was measured using the Bradford method ([Bradford 1976]) (Coomassie Plus, Bio-Rad protein assay kit) with bovine gamma globulin standards. Samples were then aliquoted and stored at −80°C.
(§4) GTPɣ[^35S] binding in mouse WT and M1 KO hippocampal membranes were determined in triplicate using an antibody capture technique in 96-well plate format ([DeLapp et al. 1999]). Membrane aliquots (15 µg/well) from WT or M1 KO C57BL6/NTac mice were incubated with test compound and GTPɣ[^35S] (500 pM/well) for 30 min. […] Plates were left to incubate for 3 h and then centrifuged for 10 min at 2000 rpm. Plates were counted for 1 min/well using a Wallac MicroBeta Trilux scintillation counter (PerkinElmer). All incubations took place at room temperature in GTP-binding assay buffer (In mM, 20 HEPES, 100 NaCl, 5 MgCl2; pH 7.4).
as §2

[7] = system: Gαq activation in M1 KO hippocampal membranes
Procedure: as §3
as §4, with “All incubations took place at room temperature in GTP-binding assay buffer (In mM, 20 HEPES, 100 NaCl, 5 MgCl2; pH 7.4).” left out
as §2

CA1 pyramidal neurons [8] = conditions: 7 µM, WT mice 6-9 weeks
CA1 pyramidal neurons [9] = system: CA1 pyramidal neurons
[10] = system: CA1 pyramidal neurons (M1R KO); conditions: 7 µM, M1R KO mice
CA1 pyramidal neurons [11] = conditions: 7 µM, WT mice, NBQX + L-689,560, -55 mV
[12] = system: CA1 pyramidal neurons (M1R KO); conditions: 7 µM, M1R KO mice; remark: listed apart in the source
human M1Rs = human M1Rs (Homo sapiens, UniProt P11229); test: cell-based
Sequence of human M1Rs (P11229 whole entry): as the sequence (P12657 whole entry) above, with V5A, S254T, K320R, G337A, V413I counted along it
Procedure: CHO cells stably expressing recombinant human M1, M3, and M5 Rs and AV12 cells stably expressing Gα15 and recombinant human M2 or M4 Rs were cultured in DMEM with high glucose and pyridoxine hydrochloride supplemented with 5–10% heat-inactivated fetal bovine serum, 10–20 mM HEPES, 1 mM L-glutamine, 1% penicillin/streptomycin solution and selection agents, 0.5 mg/mL geneticin, or 0.3 µg/mL puromycin. Confluent cultures were passaged weekly and cells harvested 24 h prior to assay using 0.25% trypsin–EDTA and plated at a density of 40 000–50 000 cells per well in tissue culture treated, poly-D-lysine-coated 96-well black-walled, clear bottom plates (Corning or Becton-Dickinson). For FLIPR (FLIPR-tetra, Molecular Devices) assays, media was removed and cells were incubated with 5 µM Fluo-4-AM/0.05% pluronic F-127 (Invitrogen) in a HEPES-buffered salt solution (HEPES-HBSS; composition, in mM; 135 NaCl, 5 KCl, 1.3 CaCl2, 0.5 MgCl2, 0.4 MgSO4, 0.4 KH2PO4, 4.2 NaHCO3, 0.3 Na2HPO4, 5.6 glucose, 20 HEPES, +2.5 mM probenecid for CHO cell lines, pH 7.5 adjusted with 5 M NaOH) for 1 h at room temperature, in the dark, before the media was removed and replaced with HEPES-buffered salt solution in the absence of Fluo-4. […]

dopamine D2 receptors = conditions: ref Melancon et al. 2013; cited from earlier work
5-HT2B receptors = conditions: ref Melancon et al. 2013; cited from earlier work
[13] = system: CA1 pyramidal cell firing; conditions: studies not reported here; reversed by scopolamine
cognition = conditions: clinical study; ref Nathan et al. 2013; cited from earlier work

T1 sequence (P08172 whole entry): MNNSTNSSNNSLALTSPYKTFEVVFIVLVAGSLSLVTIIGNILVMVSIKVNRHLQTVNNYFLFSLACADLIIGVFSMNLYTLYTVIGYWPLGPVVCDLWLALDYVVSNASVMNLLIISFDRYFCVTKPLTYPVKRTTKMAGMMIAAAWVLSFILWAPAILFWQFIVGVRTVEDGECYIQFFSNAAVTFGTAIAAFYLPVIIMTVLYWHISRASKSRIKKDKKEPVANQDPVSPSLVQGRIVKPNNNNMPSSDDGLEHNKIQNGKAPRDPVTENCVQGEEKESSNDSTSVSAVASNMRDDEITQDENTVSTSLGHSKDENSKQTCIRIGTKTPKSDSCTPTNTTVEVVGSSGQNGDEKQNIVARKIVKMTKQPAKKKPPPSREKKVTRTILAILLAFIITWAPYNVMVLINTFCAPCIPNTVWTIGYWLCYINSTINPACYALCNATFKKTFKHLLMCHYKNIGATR

Compound: CCCCC1CCN(CCCN2C(=O)CCc3ccccc32)CC1 [77-LH-28-1, 1-[3-(4-butyl-1-piperidinyl)propyl]-3,4-dihydro-2[1H]-quinolinone]
- agonism of M2 receptors (human M2 receptors [1]): No agonism
- agonism of M3 receptors (human M3 receptors): No agonism
- agonism of M4 receptors (human M4 receptors [2]): No agonism
- agonism of M5 receptors (human M5 receptors [3]): No agonism
- IC50 (human M2 receptors [4]): 1190 nM
- IC50 (human M4 receptors [5]): 2030 nM
- IC50 (human M5 receptors [6]): 2220 nM
- EC50 (mouse native M1Rs): 156 nM
- Emax (mouse native M1Rs; read-out: Emax for Gαq activation): 92 ± 2%
- Gαq activation response in M1R KO mice [7]: no response
- depolarization of CA1 pyramidal neurons (CA1 pyramidal neurons [8]): 10.4 ± 3.9 mV
- increase in input resistance (CA1 pyramidal neurons [8]): 86 ± 51 MΩ
- EPSP amplitude (CA1 pyramidal neurons [9]): 194.2 ± 42.0%
- EPSP amplitude [10]: 118.5 ± 24.7%
- IPSP amplitude (CA1 pyramidal neurons [11]): 39.1 ± 9.2%
- IPSP amplitude [12]: 64.0 ± 13.3%
- EC50 (human M1Rs): 22.2 nM
- Emax (human M1Rs; read-out: efficacy (Emax)): 98 ± 2%
- cross-reactivity at dopamine D2 receptors (dopamine D2 receptors): some cross-reactivity
- cross-reactivity at 5-HT2B receptors (5-HT2B receptors): some cross-reactivity

Compound: Cc1cc(F)c2[nH]c(=O)n(C3CCN(C4CCOCC4)CC3)c2c1 [GSK1034702]
- CA1 pyramidal cell firing in vivo [13]: increase in CA1 pyramidal cell firing
- effects on cognition (cognition): positive effects on cognition

Compound: oxotremorine M
- Emax for Gαq activation (mouse native M1Rs; WT hippocampus, percentage of maximal signal with 100 µM oxo-M): 99 ± 5%
- Gαq activation response in M1R KO mice [7]: No response
